Measurements as given in patent publication US5089529A, “Butanol derivatives” (Nippon Shinyaku Co., Ltd., priority 1983, dated 1992).
Where two headings read alike, the source gives them in different places.

How the values were obtained:
[1] = system: Arrhythmia in Mice Caused by Aconitine; experiment: Action against arrhythmia in mice caused by aconitine; format: in vivo, ddY-Male mice; conditions: Mus musculus
Procedure: A method by Nwangwu, et al (P.U. Nwangwu, T.L. Holcslow and S.J. Stohs: Arch. int. Pharmacodyn. 229, 219-226, 1977) was partly modified and the experiment was carried out. ddY-Male mice weighing 25 to 30 grams were used. One group was composed of four mice.
Arrhythmia was induced by infusion of aconitine at a concentration of 5 μg/ml in saline into a tail vein at the rate of 0.25 ml/min using a perfusion pump in mice anesthetized with Nembutal. Test drugs were administered orally or intraperitoneally 30 minutes prior to the start of infusion of aconitine. Incidentally, lidocaine was given intraperitoneally 15 minutes prior to administration of aconitine.
The status of arrhythmia was judged by an electrocardiographic recording (lead II) and, when the onset time of the arrhythmia was delayed more than "average time of untreated group plus 2SD", it was judged to have antiarrhythmic action. Then ED50 values were calculated by Weil's method from the effective rate at each dosage level.

[2] = system: Arrhythmia in Dogs Caused by Digitalis; experiment: Arrhythmia in dogs caused by digitalis (digoxin); format: in vivo, Beagle dogs; conditions: anesthetized dogs
From the text: Beagle dogs weighing 10 to 14 kg were used. […] The arrhythmia was judged by an electrocardiographic recording (lead II) and, when there was an appearance of descending or ascending big QRS complex, it was judged that ventricular arrhythmia appeared.

| SMILES | ED50 ([1]; ip, read-out: ED50, i.p.) [mg/kg] | ED50 ([1]; po, read-out: ED50, p.o.) [mg/kg] | Duration of Action ([2]; 2 mg/kg intravenous) [s] | Efficacy Ratio ([2]; 2 mg/kg intravenous) [%] | Duration of Action ([2]; 1 mg/kg intravenous) [s] | Efficacy Ratio ([2]; 1 mg/kg intravenous) [%] |
| --- | --- | --- | --- | --- | --- | --- |
| CC(C)N(CCC(C(N)=O)(c1ccccc1)c1ccccn1)C(C)C (centres unmarked) [Disopyramide, reference compound] | 12.5 | 29.7 | 365 | 57.1 |  |  |
| CC(C)CN(CCCC(O)(c1ccccc1)c1ccccc1)CC(C)C [Example 1, 4-Diisobutylamino-1,1-diphenyl-1-butanol] | 14.9 | 17.7 | 515 | 62.5 | 400 | 50.0 |
| CC(C)CNCCCC(O)(c1ccccc1)c1ccccc1 [Example 10, 1,1-Diphenyl-4-isobutylamino-1-butanol] | 11.5 | 20.3 | 500 | 58.7 |  |  |
| CCN(CC)CC(=O)Nc1c(C)cccc1C [Lidocaine, reference compound] | 35.4 |  | 350 | 50.0 |  |  |
